These results are taken from patent US7179823B1, “5-membered n-heterocyclic compounds with hypoglycemic and hypolipidemic activity” (Takeda Pharmaceutical Company Limited, priority 1999, dated 2007).

Like-named read-outs stand apart in the source and are kept apart here.

One series relates to KKA^y mice. Kind of series: Hypoglycemic and hypolipidemic actions in mice. It counts as in vivo. The conditions noted are these: Mus musculus, po, 96 h, four days; for inhibition in vivo at 0.005 %: 0.005% in powdery diet; for inhibition in vivo at 0.001 %: 0.001% in powdery diet. An excerpt:
Hypoglycemic and Hypolipidemic Actions in Mice
Test compounds were mixed in a powdery diet (CE-2, Japan Clea) at the concentration of 0.01% (compounds of Examples 12, 30, 89, 186), 0.005% (compounds of Examples 7, 80, 82, 181, 182, 184, 256, 262, 283), 0.001% (compounds of Examples 9, 104, 110, 155, 156, 160, 167, 169, 172, 174, 176, 189), or 0.0003% (compounds of Examples 38, 40, 44), and freely given to KKA^y mice (9 to 12 weeks old, 5 mice in a group), a model of obese and type 2 diabetes mellitus, for four days. During this period, water was given freely. Blood was sampled from orbital venous plexus, and glucose and triglyceride levels in plasma separated from blood were determined enzymatically using L type Wako Glu2 (Wako Pure Chemical Industries, Ltd.) or L type Wako TG•H (Wako Pure Chemical Industries, Ltd.), respectively.
In the Table, the value of each treatment group is represented as percent reduction compared with the non-treatment group.

In another series the target is T1, PPARγ-RXRα heterodimer (Homo sapiens, UniProt P37231).
T1 construct: expressed in transfected cells; host or cells: CHO-K1
T1 sequence (P37231 1-477 isoform P37231-2): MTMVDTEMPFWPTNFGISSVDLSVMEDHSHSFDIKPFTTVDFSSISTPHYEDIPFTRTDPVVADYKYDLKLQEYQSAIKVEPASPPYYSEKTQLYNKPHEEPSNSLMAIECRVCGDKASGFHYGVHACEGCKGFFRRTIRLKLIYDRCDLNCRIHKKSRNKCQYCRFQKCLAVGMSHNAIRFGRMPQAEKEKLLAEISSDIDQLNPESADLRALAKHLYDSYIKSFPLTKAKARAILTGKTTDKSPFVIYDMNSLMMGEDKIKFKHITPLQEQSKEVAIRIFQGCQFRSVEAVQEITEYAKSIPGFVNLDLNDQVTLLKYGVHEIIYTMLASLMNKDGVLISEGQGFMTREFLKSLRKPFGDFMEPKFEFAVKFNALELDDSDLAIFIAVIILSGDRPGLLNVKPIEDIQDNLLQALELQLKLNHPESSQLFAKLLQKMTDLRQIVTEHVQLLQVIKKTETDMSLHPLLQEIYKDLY
T1 sequence (P19793 1-462 partner): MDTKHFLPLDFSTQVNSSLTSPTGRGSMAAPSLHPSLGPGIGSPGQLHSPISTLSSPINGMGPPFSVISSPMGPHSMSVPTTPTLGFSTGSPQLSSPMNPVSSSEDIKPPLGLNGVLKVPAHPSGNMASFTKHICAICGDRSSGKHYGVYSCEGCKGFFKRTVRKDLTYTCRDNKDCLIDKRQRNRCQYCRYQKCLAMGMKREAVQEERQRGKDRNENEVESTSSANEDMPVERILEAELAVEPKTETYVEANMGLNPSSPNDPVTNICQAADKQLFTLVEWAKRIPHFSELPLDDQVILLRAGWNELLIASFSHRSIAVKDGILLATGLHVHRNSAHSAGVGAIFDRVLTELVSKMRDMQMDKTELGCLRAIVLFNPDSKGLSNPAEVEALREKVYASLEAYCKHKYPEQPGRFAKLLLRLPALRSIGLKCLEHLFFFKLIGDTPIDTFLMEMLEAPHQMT
Description: PPARγ-RXRα heterodimer ligand activity (luciferase reporter, PPARγ:RXRα:4ERPP/CHO-K1 cells). Particulars: 48 hours, concentration for 50% of the maximum fold induction. It counts as cell-based. On the procedure:
(PPARγ-RXRα Heterodimer Ligand Activity)
A PPARγ:RXRα:4ERPP/CHO-K1 cells obtained in Reference Example 5 described later were cultured in HAM F12 medium (produced by NISSUI SEIYAKU) containing 10% Fetal bovine serum (produced by Life Technologies, Inc., USA) and then inoculated to a 96-well white plate (produced by Corning Costar Corporation, USA) at the density of 2×10^4 cells/well, and cultured in a CO2 gas incubator at 37° C. overnight.
After washing the 96 well white plate with PBS (Phosphate-buffered saline), 90 μl of HAM F12 medium containing 0.1% fatty acid-free bovine serum albumin (BSA) and 10 μl of test compound were added, which was cultured in a CO2 gas incubator at 37° C. for 48 hours. After removing the medium, 40 μl of PIKKAGENE 7.5 (produced by Wako Pure Chemical Industries, Ltd.) was added. After stirring, the luciferase activity was determined using Lumistar (produced by BMG Labtechnologies GmbH, Germany).
A fold induction was calculated based on the luciferase activity of each test compound by taking the luciferase activity in the non-treatment group as 1. The values of the test compound concentration and the fold induction were analyzed using PRISM 2.01 (produced by GraphPad Software Inc. USA) to calculate the EC50 values, the effective concentration of a test compound for 50% of the maximum fold induction.
(Introduction of Human PPARγ- and RXRα-Expressing Plasmid and Reporter Plasmid into CHO-K1 Cell and Establishment of Expressed Cell)
After a CHO-K1 cell cultured in a 750 ml tissue culture flask (produced by Corning Costar Corporation, USA) containing HAM F12 medium (produced by NISSUI SEIYAKU) supplemented with 10% Fetal Bovine Serum (produced by Life Technologies, Inc., USA) was scraped by treating with 0.5 g/L trypsin-0.2 g/L EDTA (ethylenediaminetetraacetic acid) (produced by Life Technologies, Inc., USA), the cell was washed with PBS (phosphate-buffered saline) (produced by Life Technologies, Inc., USA), centrifuged (1000 rpm, 5 minutes), and then suspended in PBS. Subsequently, a DNA was introduced into the cell under the condition shown below using GENE PULSER (produced by Bio-Rad Laboratories, USA).
Namely, to a cuvette having a 0.4 cm gap, added were 8×10^6 cells and 10 μg of plasmid pVgRXR2-hPPAR γ obtained in Reference Example 3 and 10 μg of reporter plasmid pGL3-4ERPP-TK neo obtained in Reference Example 4, which was subjected to electroporation at the voltage of 0.25 kV under the capacitance of 960 μF. Subsequently, the cell was transferred into a HAM F12 medium containing 10% Fetal Bovine Serum and cultured for 24 hours and then the cell was scraped again and centrifuged, and then suspended in HAM F12 medium containing 10% Fetal Bovine Serum supplemented with 500 μg/ml of GENETICIN (produced by Life Technologies, Inc., USA) and 250 μg/ml of ZEOCIN (produced by Invitrogen, USA) and diluted to the density of 10^4 cells/ml upon inoculation to a 96-well plate (produced by Corning Costar Corporation, USA), which was cultured in a CO2 gas incubator at 37° C., whereby obtaining a GENETICIN- and ZEOCIN-resistant transformant.
Subsequently, after the transformant cell line thus obtained was cultured in a 24-well plate (produced by Corning Costar Corporation, USA), selected was a cell line in which the luciferase was expressed and induced, i.e., PPARγ:RXRα:4ERPP/CHO-K1 cell by addition of 10 μM pioglitazone hydrochloride.
A general note: Reporter assays use an easily measured gene product as a stand-in for the process of interest.

[1] abbreviates: percent reduction of plasma glucose compared with the non-treatment group, read-out: Hypoglycemic action (%).
[2] abbreviates: percent reduction of plasma triglyceride compared with the non-treatment group, read-out: Hypolipidemic action (%).

With `Cc1oc(-c2cccs2)nc1COc1ccc(Cn2cc(CCC(=O)O)c(-c3ccccc3)n2)cc1` [Example 82, 3-[1-[4-[5-methyl-2-(2-thienyl)-4-oxazolylmethoxy]benzyl]-3-phenyl-1H-pyrazol-4-yl]propionic acid], the melting point (commonly the temperature of the solid-liquid transition) lay within 159 to 160 °C. Also, in the series on KKA^y mice (setting [1]), the inhibition in vivo at 0.005 % was determined as 50%. In addition, the inhibition in vivo at 0.005 % with KKA^y mice (setting [2]) was 58%. The EC50 – broadly, the concentration giving half of the maximal effect – on PPARγ-RXRα heterodimer was 1.4 nM.
Compound `Cc1oc(-c2ccco2)nc1COc1ccc(Cn2cc(CCC(=O)O)c(-c3ccccc3)c2)cc1` [Example 8, 3-[1-[4-[2-(2-furyl)-5-methyl-4-oxazolylmethoxy]benzyl]-4-phenyl-3-pyrrolyl]propionic acid] gave a melting point of 86 to 87 °C. The compound further had an EC50 on PPARγ-RXRα heterodimer of 2.7 nM.
`CCCc1nn(Cc2ccc(OCc3nc(-c4ccccc4)oc3C)cc2)cc1CCC(=O)O` [Example 110, 3-[1-[4-(5-methyl-2-phenyl-4-oxazolylmethoxy)benzyl]-3-propyl-1H-pyrazol-4-yl]propionic acid] gave a melting point of 153 to 154 °C. Moreover, the inhibition in vivo at 0.001 % with KKA^y mice (setting [1]) was determined as 50%. The inhibition in vivo at 0.001 % in the series on KKA^y mice (setting [2]) came to 70%. On PPARγ-RXRα heterodimer, this compound displayed an EC50 of 3.5 nM.
`CCOc1nn(Cc2ccc(OCc3cn(-c4ccccn4)nc3C)cc2)cc1CCC(=O)O` [Example 256, 3-[3-ethoxy-1-[4-(3-methyl-1-(2-pyridyl)-1H-pyrazol-4-ylmethoxy]benzyl]-1H-pyrazol-4-yl]propionic acid]: the melting point fell in the range of 126 to 127 °C. The inhibition in vivo at 0.005 % in the series on KKA^y mice (setting [1]) was 57%. Besides, in the series on KKA^y mice (setting [2]), the inhibition in vivo at 0.005 % was found to be 16%. For the same compound, the EC50 on PPARγ-RXRα heterodimer came out at 53 nM.
Consider `Cc1oc(-c2ccccc2)nc1COc1ccc(Cn2cc(CCC(=O)O)c(-c3ccccc3)c2)cc1` [Example 7, 3-[1-[4-(5-methyl-2-phenyl-4-oxazolylmethoxy)benzyl]-4-phenyl-3-pyrrolyl]propionic acid], for which the melting point fell in the range of 124 to 125 °C. Besides, the inhibition in vivo at 0.005 % in the series with KKA^y mice (setting [1]) was determined as 54%. In addition, the inhibition in vivo at 0.005 % in the series with KKA^y mice (setting [2]) stood at 60%. At PPARγ-RXRα heterodimer, the concentration for a half-maximal effect (EC50) came to 3.8 nM.
For the compound `CCOC(=O)CCc1cn(Cc2ccc(OCc3nc(-c4ccco4)oc3C)cc2)nc1-c1ccc(F)cc1` [Example 104, ethyl 3-[3-(4-fluorophenyl)-1-[4-[2-(2-furyl)-5-methyl-4-oxazolylmethoxy]benzyl]-1H-pyrazol-4-yl]propionate], the inhibition in vivo at 0.001 % was found to be 43% with KKA^y mice (setting [1]) and 42% in the series with KKA^y mice (setting [2]). At PPARγ-RXRα heterodimer, this compound showed a 50% effective concentration (EC50) of 2 nM.
In the case of `Cc1oc(-c2ccccc2)nc1COc1ccc(Cn2cc(CCC(=O)O)c(-c3ccc(F)cc3)n2)cc1` [Example 100, 3-[3-(4-fluorophenyl)-1-[4-(5-methyl-2-phenyl-4-oxazolylmethoxy)benzyl]-1H-pyrazol-4-yl]propionic acid], the melting point was 139 to 140 °C. Moreover, the EC50 at PPARγ-RXRα heterodimer was 1.8 nM.
Consider `Cc1oc(-c2ccco2)nc1COc1ccc(Cn2cc(CCC(=O)O)c(-c3ccccc3)n2)cc1` [Example 80, 3-[1-[4-[2-(2-furyl)-5-methyl-4-oxazolylmethoxy]benzyl]-3-phenyl-1H-pyrazol-4-yl]propionic acid], for which the melting point was 152 to 153 °C. Further, the inhibition in vivo at 0.005 % with KKA^y mice (setting [1]) was determined as 42%. Moreover, the inhibition in vivo at 0.005 % in the series with KKA^y mice (setting [2]) turned out to be 22%. In addition, the 50% effective concentration (EC50) on PPARγ-RXRα heterodimer turned out to be 2.5 nM.
